Test results reported in ChEMBL document CHEMBL1139784, “Design and evaluation of a potential mutagen for Hepatitis C virus” (Bioorg Med Chem Lett, 2007).
pEC50: −log10 of the molar value.

Test system: Hepatitis C virus
Assay: Antiviral activity against HCV by viral replicon assay
Format: functional, organism-based, Hepacivirus hominis

- pEC50: 4.22
Structure (SMILES): CC(C)(C)C(=O)SCCOP(=O)(OCCSC(=O)C(C)(C)C)OC[C@H]1O[C@@H](n2cc3cc[nH]c3nc2=O)[C@H](O)[C@@H]1O
